# Patent US11459325B2, “Heterocyclic compound” (Takeda Pharmaceutical Company Limited, priority 2018, dated 2022)
# Tested on: GBA mutant human fibroblasts GM008760
# Assay: Glucosylceramide lowering assay
# Assay type: cell-based
# Conditions: Homo sapiens, Fibroblast, 96 h; 10 μM test compound, 4 days culture; GlcCer (C16:0)/Cer (C16:0) molar ratio of test compound group relative to DMSO control group x100; smaller value = glucosylceramide lowering
# Protocol: Glucosylceramide Lowering Assay
# Using GBA mutant human fibroblasts containing mutated glucosylceramidase, the effect of test compounds on glucosylceramide reduction was evaluated.
# GBA mutant human fibroblasts GM008760 (Coriel Institute) were seeded in a 96-well multiwell plate at a density of 5,000 cells/100 μL culture solution/well. GlutaMAX (Thermo Fishcer Scientific), penicillin-streptomycin, and Minimum Essential Media (Thermo Fishcer Scientific) supplemented with 15% fetal bovine serum were used as a culture solution. After culturing for 2 days, a 10 mM DMSO solution of the test compound diluted with the culture solution was added to a 96-well plate by 100 μL to adjust a final test compound concentration to 10 μM. After culturing the cells for 4 days in the presence of the test compound, the culture solution was removed, and the cells adhered to the 96-well plate were washed with a phosphate buffer (ThermoFisher Scientific, product number 14190-144). A solvent composed of 50% ethanol and 50% isopropanol was added to the 96-well plate by 100 μL, and the intracellular lipids were dissolved by pipetting. A solution prepared by dissolving N-Octadecanoyl-D35-psychosine (50 ng/mL, Matreya LLC Inc.) as an internal standard in 50% ethanol and 50% isopropanol was added to the sample in an equal volume, and 2.5 μL of the centrifuged supernatant was used as the test compound group.
# In the same manner as above, a control group was prepared by using DMSO instead of the 10 mM DMSO solution of the test compound.
# For the test compound group and the control group, molar concentrations of glucosylceramide [GlcCer (C16:0)] and ceramide [Cer (C16:0)] were quantified using Rapidfire-MS/MS (API-5000, Turbo-ESI, SRM), and the glucosylceramide lowering effect of the test compound group relative to the control group was evaluated by the following formula. (GlcCer/Cer of test compound group)/(GlcCer/Cer of control group)×100 wherein GlcCer/Cer is the ratio of the molar concentration of glucosylceramide to that of ceramide.
# In this test, when the numerical value obtained by the above calculation formula is small, glucosylceramide is metabolized to ceramide by the test compound, or the synthesis of glucosylceramide from ceramide is inhibited by the test compound, that is, it can be said that the test compound has a glucosylceramide lowering effect.
row,Structure (SMILES),activity at 10 µM [%]
1,"Cc1cn(C)c(=O)c2c(C(=O)N[C@H]3CCC[C@@H]3c3ccccc3)cn(C)c12 (racemic) [Example 110, 1,5,7-trimethyl-4-oxo-N-[rac-(1S,2R)-2-phenylcyclopentyl]-4,5-dihydro-1H-pyrrolo[3,2-c]pyridine-3-carboxamide]",58
2,"Cc1cn(C)c(=O)c2c(C(=O)N[C@H]3CCC[C@H]3c3ccccc3)cn(C)c12 (racemic) [Example 111, 1,5,7-trimethyl-4-oxo-N-[rac-(1S,2S)-2-phenylcyclopentyl]-4,5-dihydro-1H-pyrrolo[3,2-c]pyridine-3-carboxamide]",61
3,"Cc1cn(C)c(=O)c2c(C(=O)N[C@H]3CCCC[C@@H]3c3ccccc3)cn(C)c12 (racemic) [Example 112, 1,5,7-trimethyl-4-oxo-N-[rac-(1S,2R)-2-phenylcyclohexyl]-4,5-dihydro-1H-pyrrolo[3,2-c]pyridine-3-carboxamide]",61
4,"Cc1cn(C)c(=O)c2c(C(=O)N[C@H]3CCCC[C@H]3c3ccccc3)cn(C)c12 (racemic) [Example 113, 1,5,7-trimethyl-4-oxo-N-[rac-(1S,2S)-2-phenylcyclohexyl]-4,5-dihydro-1H-pyrrolo[3,2-c]pyridine-3-carboxamide]",41
5,"Cc1cn(C)c(=O)c2c(C(=O)N[C@H]3CCC[C@H](c4ccccc4)C3)cn(C)c12 (racemic) [Example 114, 1,5,7-trimethyl-4-oxo-N-[rac-(1S,3S)-3-phenylcyclohexyl]-4,5-dihydro-1H-pyrrolo[3,2-c]pyridine-3-carboxamide]",58
6,"CCCCO[C@H]1CC[C@H](NC(=O)c2cn(C)c3c(C)cn(C)c(=O)c23)CC1 [Example 2, N-(trans-4-butoxycyclohexyl)-1,5,7-trimethyl-4-oxo-4,5-dihydro-1H-pyrrolo[3,2-c]pyridine-3-carboxamide]",87
7,"Cc1cn(C)c(=O)c2c(C(=O)NC3CCC(c4ccccc4)CC3)cn(C)c12 (stereo not shown) [Example 21, 1,5,7-trimethyl-4-oxo-N-(4-phenylcyclohexyl)-4,5-dihydro-1H-pyrrolo[3,2-c]pyridine-3-carboxamide]",67
8,"COc1cc(NC(=O)c2cn(C)c3c(C)cn(C)c(=O)c23)ccn1 [Example 36, N-(2-methoxypyridin-4-yl)-1,5,7-trimethyl-4-oxo-4,5-dihydro-1H-pyrrolo[3,2-c] pyridine-3-carboxamide]",65
9,"COc1ccnc(NC(=O)c2cn(C)c3c(C)cn(C)c(=O)c23)c1 [Example 37, N-(4-methoxypyridin-2-yl)-1,5,7-trimethyl-4-oxo-4,5-dihydro-1H-pyrrolo[3,2-c] pyridine-3-carboxamide]",68
10,"Cc1cn(C)c(=O)c2c(C(=O)Nc3ccc(C#N)cn3)cn(C)c12 [Example 40, N-(5-cyanopyridin-2-yl)-1,5,7-trimethyl-4-oxo-4,5-dihydro-1H-pyrrolo[3,2-c]pyridine-3-carboxamide]",62
11,"CCCCOC1CCCC(NC(=O)c2cn(C)c3c(C)cn(C)c(=O)c23)C1 (stereo not shown) [Example 57, N-(3-butoxycyclohexyl)-1,5,7-trimethyl-4-oxo-4,5-dihydro-1H-pyrrolo[3,2-c]pyridine-3-carboxamide]",65
12,"Cc1cn(C)c(=O)c2c(C(=O)N3CCC(c4ccc(Cl)cc4)C3)cn(C)c12 (stereo not shown) [Example 71, 3-((3-(4-chlorophenyl)pyrrolidin-1-yl)carbonyl)-1,5,7-trimethyl-1,5-dihydro-4H-pyrrolo[3,2-c]pyridin-4-one]",68
13,"Cc1cn(C)c(=O)c2c(C(=O)N3CC4CC4(c4ccc(Cl)cc4)C3)cn(C)c12 (stereo not shown) [Example 72, 3-((1-(4-chlorophenyl)-3-azabicyclo[3.1.0]hex-3-yl)carbonyl)-1,5,7-trimethyl-1,5-dihydro-4H-pyrrolo[3,2-c]pyridin-4-one]",38
14,"Cc1cn(C)c(=O)c2c(C(=O)N3CCC3c3ccccc3)cn(C)c12 (stereo not shown) [Example 83, 1,5,7-trimethyl-3-((2-phenylazetidin-1-yl)carbonyl)-1,5-dihydro-4H-pyrrolo[3,2-c]pyridin-4-one]",49
15,"COc1ccccc1-n1cc(C)c2c(c(C(=O)NC3CCCCC3)cn2C)c1=O [Example 107, N-cyclohexyl-5-(2-methoxyphenyl)-1,7-dimethyl-4-oxo-4,5-dihydro-1H-pyrrolo[3,2-c]pyridine-3-carboxamide]",50
16,"COc1ccccc1-n1cc(C)c2c(c(C(=O)Nc3ccccc3)cn2C)c1=O [Example 108, 5-(2-methoxyphenyl)-1,7-dimethyl-4-oxo-N-phenyl-4,5-dihydro-1H-pyrrolo[3,2-c]pyridine-3-carboxamide]",67
17,"Cc1cn(C)c(=O)c2c(C(=O)N3CC4CC4(c4cccc(Cl)c4)C3)cn(C)c12 (stereo not shown) [Example 118, 3-((1-(3-chlorophenyl)-3-azabicyclo[3.1.0]hex-3-yl)carbonyl)-1,5,7-trimethyl-1,5-dihydro-4H-pyrrolo[3,2-c]pyridin-4-one]",59
18,"Cc1cn(C)c(=O)c2c(C(=O)N3CC4CC4(c4ccc(Cl)c(Cl)c4)C3)cn(C)c12 (stereo not shown) [Example 120, 3-((1-(3,4-dichlorophenyl)-3-azabicyclo[3.1.0]hex-3-yl)carbonyl)-1,5,7-trimethyl-1,5-dihydro-4H-pyrrolo[3,2-c]pyridin-4-one]",50
19,"Cc1cn(C)c(=O)c2c(C(=O)N3CC4CC4(c4cccc(Cl)c4Cl)C3)cn(C)c12 (stereo not shown) [Example 121, 3-((1-(2,3-dichlorophenyl)-3-azabicyclo[3.1.0]hex-3-yl)carbonyl)-1,5,7-trimethyl-1,5-dihydro-4H-pyrrolo[3,2-c]pyridin-4-one]",68
20,"Cc1cn(C)c(=O)c2c(C(=O)N3CC4CC4(c4cc(Cl)cc(Cl)c4)C3)cn(C)c12 (stereo not shown) [Example 122, 3-((1-(3,5-dichlorophenyl)-3-azabicyclo[3.1.0]hex-3-yl)carbonyl)-1,5,7-trimethyl-1,5-dihydro-4H-pyrrolo[3,2-c]pyridin-4-one]",54
21,"Cc1cn(C)c(=O)c2c(C(=O)N3CC4CC4(c4cc(Cl)ccc4Cl)C3)cn(C)c12 (stereo not shown) [Example 123, 3-((1-(2,5-dichlorophenyl)-3-azabicyclo[3.1.0]hex-3-yl)carbonyl)-1,5,7-trimethyl-1,5-dihydro-4H-pyrrolo[3,2-c]pyridin-4-one]",47
22,"Cc1cn(C)c(=O)c2c(C(=O)N3CC4CC4(c4ccc(F)cc4)C3)cn(C)c12 (stereo not shown) [Example 124, 3-((1-(4-fluorophenyl)-3-azabicyclo[3.1.0]hex-3-yl)carbonyl)-1,5,7-trimethyl-1,5-dihydro-4H-pyrrolo[3,2-c]pyridin-4-one]",56
23,"Cc1cn(C)c(=O)c2c(C(=O)N3CC4CC4(c4ccccc4F)C3)cn(C)c12 (stereo not shown) [Example 126, 3-((1-(2-fluorophenyl)-3-azabicyclo[3.1.0]hex-3-yl)carbonyl)-1,5,7-trimethyl-1,5-dihydro-4H-pyrrolo[3,2-c]pyridin-4-one]",61
24,"COc1ccc(C23CC2CN(C(=O)c2cn(C)c4c(C)cn(C)c(=O)c24)C3)cc1 (stereo not shown) [Example 127, 3-((1-(4-methoxyphenyl)-3-azabicyclo[3.1.0]hex-3-yl)carbonyl)-1,5,7-trimethyl-1,5-dihydro-4H-pyrrolo[3,2-c]pyridin-4-one]",65
25,"Cc1cn(C)c(=O)c2c(C(=O)N3CC4CC4(c4ccc(OC(F)(F)F)cc4)C3)cn(C)c12 (stereo not shown) [Example 130, 1,5,7-trimethyl-3-((1-(4-(trifluoromethoxy)phenyl)-3-azabicyclo[3.1.0]hex-3-yl)carbonyl)-1,5-dihydro-4H-pyrrolo[3,2-c]pyridin-4-one]",21
26,"Cc1cn(C)c(=O)c2c(C(=O)N3CC4CC4(c4cccc(OC(F)(F)F)c4)C3)cn(C)c12 (stereo not shown) [Example 131, 1,5,7-trimethyl-3-((1-(3-(trifluoromethoxy)phenyl)-3-azabicyclo[3.1.0]hex-3-yl)carbonyl)-1,5-dihydro-4H-pyrrolo[3,2-c]pyridin-4-one]",63
27,"Cc1cn(C)c(=O)c2c(C(=O)N3CC4CC4(c4ccccc4C(F)(F)F)C3)cn(C)c12 (stereo not shown) [Example 137, 1,5,7-trimethyl-3-((1-(2-(trifluoromethyl)phenyl)-3-azabicyclo[3.1.0]hex-3-yl)carbonyl)-1,5-dihydro-4H-pyrrolo[3,2-c]pyridin-4-one]",64
28,"Cc1cn(C)c(=O)c2c(C(=O)N3CC4CC4(c4ccc(C(F)(F)F)c(F)c4)C3)cn(C)c12 (stereo not shown) [Example 138, 3-((1-(3-fluoro-4-(trifluoromethyl)phenyl)-3-azabicyclo[3.1.0]hex-3-yl)carbonyl)-1,5,7-trimethyl-1,5-dihydro-4H-pyrrolo[3,2-c]pyridin-4-one]",39
